Laboratory results published in ChEMBL document CHEMBL1154797, “Synthesis, anti-bacterial and anti-fungal activities of some novel Schiff bases containing 2,4-disubstituted thiazole ring” (2010).
In brackets after ≈: the same amount, converted by molar mass.

Experiments:
Cryptococcus neoformans [1] = type: functional
Description: Antifungal activity against Cryptococcus neoformans at MIC after 72 hrs by disk diffusion assay

Aspergillus flavus [2] = type: functional
Description: Antifungal activity against Aspergillus flavus at MIC after 72 hrs by disk diffusion assay

Candida tropicalis [3] = type: functional
Description: Antifungal activity against Candida tropicalis at MIC after 72 hrs by disk diffusion assay

Aspergillus flavus [4] = experiment: Antifungal activity against Aspergillus flavus; type: functional
Candida albicans [5] = type: functional
Description: Antifungal activity against Candida albicans at MIC after 72 hrs by disk diffusion assay

Cryptococcus neoformans [6] = experiment: Antifungal activity against Cryptococcus neoformans; type: functional
Candida albicans [7] = experiment: Antifungal activity against Candida albicans; type: functional
Candida tropicalis [8] = experiment: Antifungal activity against Candida tropicalis; type: functional
Klebsiella pneumoniae [9] = experiment: Antibacterial activity against Klebsiella pneumoniae; type: functional
Klebsiella pneumoniae [10] = experiment: Antibacterial activity against Klebsiella pneumoniae at MIC after 24 hrs by disk diffusion assay; type: functional
Vibrio cholerae [11] = experiment: Antibacterial activity against Vibrio cholerae; type: functional
Vibrio cholerae [12] = experiment: Antibacterial activity against Vibrio cholerae at MIC after 24 hrs by disk diffusion assay; type: functional
Staphylococcus aureus [13] = experiment: Antibacterial activity against Staphylococcus aureus; type: functional
Staphylococcus aureus [14] = experiment: Antibacterial activity against Staphylococcus aureus at MIC after 24 hrs by disk diffusion assay; type: functional
Pseudomonas aeruginosa [15] = experiment: Antibacterial activity against Pseudomonas aeruginosa; type: functional
Pseudomonas aeruginosa [16] = experiment: Antibacterial activity against Pseudomonas aeruginosa at MIC after 24 hrs by disk diffusion assay; type: functional
Salmonella enterica [17] = experiment: Antibacterial activity against Salmonella typhi at MIC after 24 hrs by disk diffusion assay; type: functional, Salmonella enterica subsp. enterica serovar Typhi
Salmonella enterica [18] = experiment: Antibacterial activity against Salmonella typhi; type: functional, Salmonella enterica subsp. enterica serovar Typhi

Brc1ccc(-c2csc(N/N=C/c3ccccc3)n2)cc1
diameter of the inhibition zone (DIZ) (Cryptococcus neoformans [1]): 15 mm
diameter of the inhibition zone (DIZ) (Aspergillus flavus [2]): 16 mm
diameter of the inhibition zone (DIZ) (Candida tropicalis [3]): 14 mm
MIC (Aspergillus flavus [4]): 12.5 µg/mL (≈ 34.9 µM)
diameter of the inhibition zone (DIZ) (Candida albicans [5]): 15 mm
MIC (Cryptococcus neoformans [6]): 12.5 µg/mL (≈ 34.9 µM)
MIC (Candida albicans [7]): 12.5 µg/mL (≈ 34.9 µM)
MIC (Candida tropicalis [8]): 25 µg/mL (≈ 69.8 µM)

Oc1ccccc1/C=N/Nc1nc(-c2ccc(Br)cc2)cs1
MIC (Klebsiella pneumoniae [9]): 50 µg/mL (≈ 134 µM)
diameter of the inhibition zone (DIZ) (Klebsiella pneumoniae [10]): <10 mm

Brc1ccc(-c2csc(NN=C3CCCC3)n2)cc1
diameter of the inhibition zone (DIZ) (Cryptococcus neoformans [1]): 14 mm
diameter of the inhibition zone (DIZ) (Aspergillus flavus [2]): 15 mm
MIC (Aspergillus flavus [4]): 12.5 µg/mL (≈ 37.2 µM)
diameter of the inhibition zone (DIZ) (Candida albicans [5]): 16 mm
MIC (Vibrio cholerae [11]): 6.25 µg/mL (≈ 18.6 µM)
MIC (Cryptococcus neoformans [6]): 12.5 µg/mL (≈ 37.2 µM)
diameter of the inhibition zone (DIZ) (Vibrio cholerae [12]): 19 mm
MIC (Candida albicans [7]): 12.5 µg/mL (≈ 37.2 µM)

OC(Cn1cncn1)(Cn1cncn1)c1ccc(F)cc1F [FLUCONAZOLE]
diameter of the inhibition zone (DIZ) (Cryptococcus neoformans [1]): 22 mm
diameter of the inhibition zone (DIZ) (Aspergillus flavus [2]): 19 mm
diameter of the inhibition zone (DIZ) (Candida tropicalis [3]): 20 mm
MIC (Aspergillus flavus [4]): 6.25 µg/mL (≈ 20.4 µM)
diameter of the inhibition zone (DIZ) (Candida albicans [5]): 22 mm
MIC (Cryptococcus neoformans [6]): 6.25 µg/mL (≈ 20.4 µM)
MIC (Candida albicans [7]): 6.25 µg/mL (≈ 20.4 µM)
MIC (Candida tropicalis [8]): 6.25 µg/mL (≈ 20.4 µM)

COc1ccc(-c2csc(N/N=C/c3ccc(OC)c(OC)c3)n2)cc1
MIC (Staphylococcus aureus [13]): 50 µg/mL (≈ 135 µM)
diameter of the inhibition zone (DIZ) (Staphylococcus aureus [14]): <10 mm

COc1ccc(-c2csc(N/N=C/c3cc(OC)c(OC)c(OC)c3)n2)cc1
MIC (Staphylococcus aureus [13]): 50 µg/mL (≈ 125 µM)
diameter of the inhibition zone (DIZ) (Staphylococcus aureus [14]): <10 mm

COc1ccc(-c2csc(N/N=C(\c3ccccc3)C(O)c3ccccc3)n2)cc1 (stereo not given)
diameter of the inhibition zone (DIZ) (Aspergillus flavus [2]): 13 mm
MIC (Aspergillus flavus [4]): 25 µg/mL (≈ 60.2 µM)
MIC (Vibrio cholerae [11]): 25 µg/mL (≈ 60.2 µM)
diameter of the inhibition zone (DIZ) (Vibrio cholerae [12]): 16 mm

OC(/C(=N/Nc1nc(-c2ccc(Br)cc2)cs1)c1ccccc1)c1ccccc1 (stereo not given)
MIC (Staphylococcus aureus [13]): 12.5 µg/mL (≈ 26.9 µM)
diameter of the inhibition zone (DIZ) (Cryptococcus neoformans [1]): 21 mm
diameter of the inhibition zone (DIZ) (Aspergillus flavus [2]): 17 mm
diameter of the inhibition zone (DIZ) (Candida tropicalis [3]): 16 mm
MIC (Aspergillus flavus [4]): 6.25 µg/mL (≈ 13.5 µM)
diameter of the inhibition zone (DIZ) (Staphylococcus aureus [14]): 17 mm
diameter of the inhibition zone (DIZ) (Candida albicans [5]): 19 mm
MIC (Vibrio cholerae [11]): 12.5 µg/mL (≈ 26.9 µM)
MIC (Cryptococcus neoformans [6]): 6.25 µg/mL (≈ 13.5 µM)
diameter of the inhibition zone (DIZ) (Vibrio cholerae [12]): 17 mm
MIC (Candida albicans [7]): 6.25 µg/mL (≈ 13.5 µM)
MIC (Candida tropicalis [8]): 6.25 µg/mL (≈ 13.5 µM)

Brc1ccc(-c2csc(NN=C3CCCCC3)n2)cc1
diameter of the inhibition zone (DIZ) (Cryptococcus neoformans [1]): 16 mm
diameter of the inhibition zone (DIZ) (Aspergillus flavus [2]): 16 mm
diameter of the inhibition zone (DIZ) (Candida tropicalis [3]): 14 mm
MIC (Aspergillus flavus [4]): 12.5 µg/mL (≈ 35.7 µM)
diameter of the inhibition zone (DIZ) (Candida albicans [5]): 17 mm
MIC (Cryptococcus neoformans [6]): 12.5 µg/mL (≈ 35.7 µM)
MIC (Candida albicans [7]): 12.5 µg/mL (≈ 35.7 µM)
MIC (Candida tropicalis [8]): 12.5 µg/mL (≈ 35.7 µM)

COc1ccc(-c2csc(N/N=C/c3ccc(O)cc3O)n2)cc1
MIC (Pseudomonas aeruginosa [15]): 50 µg/mL (≈ 146 µM)
diameter of the inhibition zone (DIZ) (Pseudomonas aeruginosa [16]): <10 mm

COc1ccc(-c2csc(N/N=C/c3ccccc3)n2)cc1
diameter of the inhibition zone (DIZ) (Cryptococcus neoformans [1]): 14 mm
diameter of the inhibition zone (DIZ) (Aspergillus flavus [2]): 13 mm
MIC (Aspergillus flavus [4]): 12.5 µg/mL (≈ 40.4 µM)
diameter of the inhibition zone (DIZ) (Candida albicans [5]): 13 mm
MIC (Cryptococcus neoformans [6]): 12.5 µg/mL (≈ 40.4 µM)
MIC (Candida albicans [7]): 12.5 µg/mL (≈ 40.4 µM)

Brc1ccc(-c2csc(N/N=C/c3c[nH]c4ccccc34)n2)cc1
diameter of the inhibition zone (DIZ) (Cryptococcus neoformans [1]): 13 mm
MIC (Cryptococcus neoformans [6]): 25 µg/mL (≈ 62.9 µM)

COc1ccc(-c2csc(NN=C3CCCC3)n2)cc1
diameter of the inhibition zone (DIZ) (Cryptococcus neoformans [1]): 18 mm
diameter of the inhibition zone (DIZ) (Aspergillus flavus [2]): 18 mm
MIC (Aspergillus flavus [4]): 12.5 µg/mL (≈ 43.5 µM)
diameter of the inhibition zone (DIZ) (Candida albicans [5]): 17 mm
MIC (Cryptococcus neoformans [6]): 12.5 µg/mL (≈ 43.5 µM)
MIC (Candida albicans [7]): 12.5 µg/mL (≈ 43.5 µM)

Fc1ccccc1/C=N/Nc1nc(-c2ccc(Br)cc2)cs1
MIC (Klebsiella pneumoniae [9]): 50 µg/mL (≈ 133 µM)
diameter of the inhibition zone (DIZ) (Klebsiella pneumoniae [10]): <10 mm

O=C(O)c1cn(C2CC2)c2cc(N3CCNCC3)c(F)cc2c1=O [CIPROFLOXACIN]
diameter of the inhibition zone (DIZ) (Salmonella enterica [17]): 18 mm
MIC (Klebsiella pneumoniae [9]): 6.25 µg/mL (≈ 18.9 µM)
diameter of the inhibition zone (DIZ) (Staphylococcus aureus [14]): 25 mm
MIC (Salmonella enterica [18]): 6.25 µg/mL (≈ 18.9 µM)
diameter of the inhibition zone (DIZ) (Klebsiella pneumoniae [10]): 23 mm

COc1ccc(/C=N/Nc2nc(-c3ccc(OC)cc3)cs2)cc1
MIC (Staphylococcus aureus [13]): 50 µg/mL (≈ 147 µM)
diameter of the inhibition zone (DIZ) (Staphylococcus aureus [14]): <10 mm

COc1ccc(-c2csc(N/N=C/c3ccccc3O)n2)cc1
diameter of the inhibition zone (DIZ) (Cryptococcus neoformans [1]): 12 mm
diameter of the inhibition zone (DIZ) (Candida tropicalis [3]): 13 mm
diameter of the inhibition zone (DIZ) (Candida albicans [5]): 11 mm
MIC (Cryptococcus neoformans [6]): 25 µg/mL (≈ 76.8 µM)
MIC (Candida albicans [7]): 25 µg/mL (≈ 76.8 µM)
MIC (Candida tropicalis [8]): 25 µg/mL (≈ 76.8 µM)
